Reference: patent publication US9260417B2, “Therapeutic methods and compositions involving allosteric kinase inhibition” (AMITECH THERAPEUTIC SOLUTIONS, INC., priority 2010, dated 2016)
pEC50: −log10 of the molar value.

Tests used:
HT29 = assay: Tumor cell viability; type: cell-based; conditions: Homo sapiens, HT-29; Colon HT29, B-RAF V600E
Procedure: (§1) For XTT assays, cells were grown in 96-well plates overnight and all assays were conducted in growth medium will full serum and additives. Compounds were serially diluted in DMSO and then further diluted into the medium to give the appropriate concentration while minimizing precipitation associated with serial diluting in medium alone Inhibitors were added for 72 h and cell viability was quantified at 450 nm after the addition of 1 mg/ml XTT solution (Sigma-Aldrich) in phenol-red free DMEM medium containing […] (Sigma-Aldrich). Dose-response curves were plotted using GraphPad Prism software and EC50s were calculated using this program.

MCF7 = assay: Tumor cell viability; type: cell-based; conditions: Homo sapiens; Breast MCF7, PI3K
Procedure: as §1

R40P = assay: Tumor cell viability; type: cell-based; conditions: Pancreatic (mouse spontaneous model) R40P, K-Ras
Procedure: as §1

[1] = target: B-RAF/C-RAF heterodimerization (Homo sapiens (Human), UniProt P15056); assay: B-RAF/C-RAF heterodimerization in HUVECs (immunoprecipitation/Western); type: cell-based; conditions: ECs stimulated with bFGF or VEGF
HCT116 = assay: Tumor cell viability; type: cell-based, human; conditions: Homo sapiens, HCT-116; Colon HCT116, K-Ras
Procedure: as §1

[2] = system: HUVECs co-cultured with hTERT-human hepatic stellate cells; assay: Stellate cell/endothelial cell co-culture tube formation assay; type: cell-based; conditions: […] 6, […] 3, 1.0 μM imatinib, 0.5 μM GW 5074
Procedure: One representative panel from 3 independent experiments is shown. […] Scale bar=200 μm.
The stellate cells were washed in PBS and mixed with early passage HUVECs (p<5) at a ratio of 1:4 and mixed into a 3.75 mg/ml Type 1 Rat tail collagen matrix (BD Biosciences) in M-199 media. 30 μl of this mixture was seeded onto each well of a half-area 96 well plate (Corning). The collagen was allowed to polymerize for 30 min at 37° C. and […] of complete EBM-2 media was added to each well. Various inhibitors were serially diluted in DMSO and subsequently added to duplicate wells 6 h post cell seeding. […] The endothelial tubes and the stellate cells were imaged at 48 h with a 10× objective on a confocal microscope. Images were collected across five fields per well.
Stellate cell/endothelial cell tube formation assay and mouse matrigel model. This assay was performed as described in the SI Methods. The stellate cells were a gift from Dr. David Brenner and previously described (Schnabl, et al. (2002) Laboratory investigation; a journal of technical methods and pathology 82:323-333). […] The mouse matrigel model was performed as previously described (Eliceiri, et al. (1999) Molecular cell 4:915-924 5) and further details of immunohistochemistry and animal dosing can be found herein.
To validate the findings of Example 10, a co-culture angiogenesis assay was utilized to evaluate similar combinations of PDGFR and RAF inhibitors. In the assay, HUVECs are mixed with hepatic stellate cells (a pericyte found in the perisinusoidal space of the liver) in a 3D-collagen gel. The co-culture produced endothelial tubes with pericyte contacts (from the stellate cells) that can be imaged and quantified as shown in FIGS. 4B and C.

[3] = system: Tg(fli1:EGFP) zebrafish embryos; assay: Zebrafish angiogenesis model; conditions: for intersegmental vessel formation: treated 16-48 hpf, 5 μM imatinib, 1 μM GW 5074, alone or combined
Procedure: Embryos were treated with 1 μM 6 or SU5416, or 10 μM 3 from 20 hours post fertilization (hpf) until 48 hpf. Representative 3D reconstructions of the blood vasculature are shown for both the head and tail regions of the embryo. Designations for the major vessels in the head and tail of the zebrafish embryo at 48 hpf are available in FIG. 8A. (FIG. 3B) Disruption of lumen formation in the zebrafish during late vessel maturation. Zebrafish treated with either 1 μM 6 or 10 μM 3 from 20-48 hpf were imaged at 35 and 48 hpf. […] Shown is 3D overlap reconstruction of the GFP expressing intersegmental vessels with TUNEL-positive nuclei at 48 hpf (shown in red). Representative phase contrast views as well as quantification of intersegmental vessel volumes from FIG. 3A and FIG. 3B can be found in FIG. 8B-D, respectively. (FIG. 3C) Time course of drug addition to zebrafish. […] At 30 hpf the zebrafish embryos established early vessels with evident lumens. […] All scale bars=100 μm.
Z-stacks from laser scanning confocal microscopy are shown depicting formation of the intersegmental vessels at 48 hpf. n=6 embryos/treatment. (FIG. 4B) HUVECs were co-cultured with hTERT-human hepatic stellate cells in a 3-D collagen matrix in the presence of complete EBM-2 medium to monitor pericyte-associated endothelial tube formation. […] The endothelial tubes were stained at 24 h by adding 2 μl FITC labeled Ulex europaeus lectin (Vector labs) per well. Images were acquired 48 h post seeding of the cells. One representative panel from 3 independent experiments is shown. Green—FITC lectin labeled endothelial cells, Red—DiIC(3) labeled stellate cells. […] Scale bar=200 μm. (FIG. 4C) Tube lengths were measured using Metamorph software for each tube for all 10 fields that were acquired. The % pericyte-covered tube length was calculated from the ratio of tube length sums for the tubes with and without pericyte contact. Error bars are reported as ±SEM of two wells per group. *indicates p<0.05 compared to DMSO group.
Zebrafish studies. Transgenic Tg(fli1:EGFP) zebrafish embryos were purchased from www.zfin.org and reported elsewhere (Lawson, et al. (2002) Dev Biol 248:307-318) and maintained according to (“Zebrafish—A Practical Approach”, Oxford University Press, 2002). Compounds in DMSO stock solutions were diluted directly into the water and vessels were imaged for GFP expression using a Nikon c1-si confocal microscope. Apoptosis was measured by TUNEL staining using the Apoptag in situ Red Fluorescence Kit (Chemicon) with a protocol described previously (Stanton, et al. (2006) The Journal of biological chemistry 281:28782-28793).

A549 cells = assay: Cell proliferation assay (BrdU ELISA) in A549 cells; type: cell-based; conditions: A549, low serum DMEM (0.5% FBS), 72 h
Procedure: A549 cells, which endogenously express oncogenic K-RAS, were plated at 2500 cells/well of a 96-well plate in low serum DMEM (0.5% fetal bovine serum) overnight. The next morning, compounds were serially diluted in DMSO and resuspended in fresh DMEM+0.5% medium, which was added to the cells for 72 h. At this time point the cells were fixed and proliferation was quantified using an ELISA for bromodeoxyuriding incorporation (BrdU ELISA, Millipore, Inc.). BrdU incorporation occurs during S phase and is the classical method for determining cell proliferation rates. In FIG. 14B-C, BrdU incorporation is expressed as a percentage of the BrdU incorporation occurring in cells treated with 0.1% DMSO as control. A dotted line represents the growth rate of cells treated with DMSO alone. […] (FIG. 13C)

XPA-1 cells = assay: Cell cycle analysis of XPA-1 cells (flow cytometry); type: cell-based; conditions: 5 μM, 20 h
Procedure: For cell cycle analysis, cells were grown in complete DMEM+10% FBS in the presence of each inhibitor and harvested after 20 h of inhibitor treatment. Cell cycle analysis was performed by flow cytometry following propidium iodide staining. The cells were harvested, fixed with ice cold methanol, treated for 45 min with 10 μg/ml of RNAse and resuspended in PBS containing 10 μg/ml of PI, and analysed by flow cytometry. […] For corresponding confocal microscopy images, cells attached to coverslips were fixed with cold methanol and permeabilized in PBS containing 0.1% triton X-100 for two minutes and blocked for 60 minutes, at room temperature with 2% BSA in PBS. Cells were stained with the DNA binding dye TOPRO-3 (Invitrogen) to label the DNA and laminB (Santa Cruz) to label the nuclear envelope. The anti-Lamin B antibody was used at a 1:100 dilution for two hours at room temperature. After washing several times with PBS, cells were stained for two hours at room temperature, with secondary antibody diluted 1:300 and co-incubated with TOPRO-3 (1:500) (Invitrogen). Samples were mounted in Vectashield hard-set mounting media (Vector Laboratories) and imaged on a Nikon Eclipse Cl confocal microscope with a 1.4 NA 60× oil-immersion lens, using minimum pinhole (30 μm). Images were captured and processed using EZ-C1 3.50 imaging software (Nikon, Inc). Scale bars, 10 μm.

Sequence of B-RAF/C-RAF heterodimerization (P15056 whole entry, one chain of several): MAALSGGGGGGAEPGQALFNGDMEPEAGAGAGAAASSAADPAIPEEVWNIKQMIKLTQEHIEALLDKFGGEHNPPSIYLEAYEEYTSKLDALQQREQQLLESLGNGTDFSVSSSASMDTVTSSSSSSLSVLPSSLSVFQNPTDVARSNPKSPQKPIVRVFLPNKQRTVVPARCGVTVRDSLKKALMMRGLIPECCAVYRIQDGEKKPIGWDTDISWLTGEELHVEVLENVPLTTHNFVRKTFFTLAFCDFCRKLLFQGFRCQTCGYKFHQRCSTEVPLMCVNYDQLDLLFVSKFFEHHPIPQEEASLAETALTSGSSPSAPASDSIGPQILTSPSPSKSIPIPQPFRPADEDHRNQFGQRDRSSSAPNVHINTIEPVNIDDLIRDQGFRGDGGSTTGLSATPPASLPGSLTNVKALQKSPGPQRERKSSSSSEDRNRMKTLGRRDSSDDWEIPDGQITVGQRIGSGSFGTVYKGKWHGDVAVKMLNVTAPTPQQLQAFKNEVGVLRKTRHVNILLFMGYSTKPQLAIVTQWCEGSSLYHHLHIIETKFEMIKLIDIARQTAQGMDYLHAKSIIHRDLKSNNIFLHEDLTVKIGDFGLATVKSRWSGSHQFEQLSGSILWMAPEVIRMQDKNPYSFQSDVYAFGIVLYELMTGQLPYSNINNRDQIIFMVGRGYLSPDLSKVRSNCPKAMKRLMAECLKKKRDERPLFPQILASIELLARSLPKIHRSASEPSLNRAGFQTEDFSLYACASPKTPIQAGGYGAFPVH

## N#CC(=C(/N)Sc1ccccc1N)/C(C#N)=C(\N)Sc1ccccc1N [Compound U0126]
HT29
  pEC50: 5.36
MCF7
  pEC50: < 4.70
R40P
  pEC50: 4.96
[1]
  B-RAF/C-RAF heterodimer formation: greatly increased
HCT116
  pEC50: < 4.70

## O=C1Nc2ccc(I)cc2/C1=C/c1cc(Br)c(O)c(Br)c1 [GW 5074, reference compound]
[2]
  endothelial tube formation and % pericyte-covered tube length: did not affect pericyte coverage or tube length
[3]
  intersegmental vessel formation: do not have an effect on intersegmental vessel formation

## Oc1cc(-c2nc(-c3ccccc3)[nH]c2-c2ccncc2)ccc1Cl [L-779,450]
A549 cells
  cell proliferation (BrdU incorporation) versus DMSO control: induce hyperproliferation

## O=C(NOC[C@H](O)CO)c1ccc(F)c(F)c1Nc1ccc(I)cc1F [PD0325901, reference compound]
XPA-1 cells
  cell cycle / mitotic progression: had no effect on mitotic progression

## CCCS(=O)(=O)Nc1ccc(F)c(C(=O)c2c[nH]c3ncc(Cl)cc23)c1F [PLX 4720]
A549 cells
  cell proliferation (BrdU incorporation) versus DMSO control: induce hyperproliferation

## Cc1cc(C)c(C=C2C(=O)Nc3ccccc32)[nH]1 [SU5416, 3-[(2,4-dimethylpyrrol-5-yl)methylene]-2-indolinone]
[3]; treated 20-48 hpf, 1 μM 6 or SU5416, up to 10 μM 3
  blood vessel formation in zebrafish embryos: completely disrupting endothelial cell migration and neovascularization in the tail

## Cc1ccc(NC(=O)c2ccc(CN3CCN(C)CC3)cc2)cc1Nc1nccc(-c2cccnc2)n1 [imatinib, reference compound]
[2]
  endothelial tube formation and % pericyte-covered tube length: did not affect endothelial tube formation
[3]
  intersegmental vessel formation: do not have an effect on intersegmental vessel formation
